Assay: recombinant UMI read abundance after kanamycin selection (control-corrected) (log10(CPM+1)); higher = more efficient recombination; extreme values may be limits of the assay; sequences stand for … in AGTGCAGAGAAAATCGGCCAGTTTTCTCTGCCTGCAGTCCGCATGCCGTGGGACCCCTTGGGTTCTAACCTGTTGCCTAGATTTATGCAGCGGACTGCCTTTCTCCCAAAGTGATAAACCGG…AGGTTGGTTTCACT; site = the 11-nt donor
Method in brief: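 Under IPTG (0.07 mM) plus kanamycin, or without selection, Escherichia coli carrying a UMI-tagged donor and donor-binding-loop pair library and a target plasmid for the IS621 bridge recombinase were plated in two replicates. Recombinant UMIs were PCR-amplified across the donor–target junction and sequenced. Counts were converted to CPM, averaged over replicates, scaled by control-derived factors and reported as log10(CPM+1).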
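Also: IS621 bridge recombinase in Escherichia coli cells against a fixed T5 target plasmid.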

Sequence	recombinant UMI read abundance (log10)
GGCAAACCATGGACCGGTTTTCCCGGTAATCCGTATTTGAA (site GGCAATCCTTT)	0
GGCAACCCATGGACCGGTTTTCCCGGTAATCCGTATTTGGA (site GGCAACCCTTC)	0.0138
GGCAATCCATGGACCGGTTTTCCCGGTAATCCGTATTTGAC (site GGCAATCCTAT)	0.00921
GGCAATCCATGGACCGGTTTTCCCGGTAATCCGTATTTGAC (site GGCAATCCTCT)	0.00258
GGCAATCCATGGACCGGTTTTCCCGGTAATCCGTATTTGAC (site GGCAATCCTGT)	0.665
GGCAATCCATGGACCGGTTTTCCCGGTAATCCGTATTTGAC (site GGCAATCCTTT)	0
GGCAATCCATGGACCGGTTTTCCCGGTAATCCGTATTTGTA (site GGCAATCCTTA)	0.264
GGCAATCCATGGACCGGTTTTCCCGGTAATCCGTATTTGTA (site GGCAATCCTTC)	0.00948
GGCAATCCATGGACCGGTTTTCCCGGTAATCCGTATTTGTA (site GGCAATCCTTG)	0
GGCAATCCATGGACCGGTTTTCCCGGTAATCCGTATTTGTA (site GGCAATCCTTT)	0
GGCACAGCATGGACCGGTTTTCCCGGTAATCCGTATTTGAA (site GGCACAGCTTT)	1.87
GGCAGAGCATGGACCGGTTTTCCCGGTAATCCGTATTTGCC (site GGCAGAGCTGG)	0
GGCCAACCATGGACCGGTTTTCCCGGTAATCCGTATTTGTT (site GGCCAACCTAA)	0.00804
GGCCAACCATGGACCGGTTTTCCCGGTAATCCGTATTTGTT (site GGCCACCCTAA)	0.0125
GGCCAACCATGGACCGGTTTTCCCGGTAATCCGTATTTGTT (site GGCCAGCCTAA)	0.0207
GGCCAACCATGGACCGGTTTTCCCGGTAATCCGTATTTGTT (site GGCCATCCTAA)	0.00632

Sequence	recombinant UMI read abundance (log10)
GGCCACCCATGGACCGGTTTTCCCGGTAATCCGTATTTGCG (site GGCCACCCTCG)	0.00687
GGCCACCCATGGACCGGTTTTCCCGGTAATCCGTATTTGCT (site GGCCACCCTAA)	0.0723
GGCCACCCATGGACCGGTTTTCCCGGTAATCCGTATTTGCT (site GGCCACCCTAC)	0.0158
GGCCACCCATGGACCGGTTTTCCCGGTAATCCGTATTTGCT (site GGCCACCCTAG)	0
GGCCACCCATGGACCGGTTTTCCCGGTAATCCGTATTTGCT (site GGCCACCCTAT)	0.00294
GGCCACCCATGGACCGGTTTTCCCGGTAATCCGTATTTGGT (site GGCCACCCTAA)	0.113
GGCCACCCATGGACCGGTTTTCCCGGTAATCCGTATTTGGT (site GGCCACCCTAC)	0.00471
GGCCACCCATGGACCGGTTTTCCCGGTAATCCGTATTTGGT (site GGCCACCCTAG)	0
GGCCACCCATGGACCGGTTTTCCCGGTAATCCGTATTTGGT (site GGCCACCCTAT)	0.0141
GGCCAGTCATGGACCGGTTTTCCCGGTAATCCGTATTTGCA (site GGCCAGTCTTG)	2.73
GGCCATCCATGGACCGGTTTTCCCGGTAATCCGTATTTGGC (site GGCCATCCTGC)	0
GGCCATCCATGGACCGGTTTTCCCGGTAATCCGTATTTGTT (site GGCCAACCTAA)	0
GGCCATCCATGGACCGGTTTTCCCGGTAATCCGTATTTGTT (site GGCCACCCTAA)	0.0125
GGCCATCCATGGACCGGTTTTCCCGGTAATCCGTATTTGTT (site GGCCAGCCTAA)	0.00245
GGCCATCCATGGACCGGTTTTCCCGGTAATCCGTATTTGTT (site GGCCATCCTAA)	0.0172
GGCCCGCCATGGACCGGTTTTCCCGGTAATCCGTATTTGCC (site GGCCCGCCTGG)	0

From the supplement of paper PMC11208160
